Assay results reported in patent publication US20030036111A1, “Mitochondrial protein” (priority 2001, published 2003).
Entries after “also recorded” stand apart in the source; their conditions may differ.

Columns and labels:
Assay type in all cases: biochemical
[1] = molecular target: T1, human DNC (mitochondrial deoxynucleotide carrier) (Homo sapiens, UniProt Q9HC21); experiment: Inhibition of [α-35S]dATP uptake (dATP/ADP exchange) by external substrates and carrier inhibitors; conditions: for Ki, competitive inhibition of [α-35 S]dATP uptake by external substrate: internal ADP or dADP 10 mM; for Ki: read-out: Ki, competitive inhibition of [α-35 S]dATP uptake by external substrate
T1 construct: Amino acids are numbered from 1-320; made in house; host or cells: E. coli BL21(DE3), pET21b; inclusion bodies solubilized in sarkosyl, Ni-NTA purified
T1 sequence (Q9HC21 2-320 limits assumed): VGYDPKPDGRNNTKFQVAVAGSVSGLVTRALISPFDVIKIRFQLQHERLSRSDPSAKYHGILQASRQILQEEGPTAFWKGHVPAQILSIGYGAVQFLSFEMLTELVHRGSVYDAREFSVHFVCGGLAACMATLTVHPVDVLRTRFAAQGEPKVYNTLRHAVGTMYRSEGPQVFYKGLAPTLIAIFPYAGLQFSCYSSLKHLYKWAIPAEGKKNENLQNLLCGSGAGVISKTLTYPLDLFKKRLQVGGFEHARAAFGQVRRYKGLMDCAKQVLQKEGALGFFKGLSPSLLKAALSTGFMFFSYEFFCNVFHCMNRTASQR

[2] = molecular target: T1, human DNC (mitochondrial deoxynucleotide carrier); experiment: Dependence of DNC activity ([α-35S]dATP uptake) on internal substrate; conditions: internal substrate 10 mM; for rate of [α-35 S]dATP uptake into proteoliposomes with internal substrate: 2 min
Description: FIG. 3. Time course of dATP/ADP exchange and substrate specificity of human DNC. (a) Time course of [α-35 S]dATP/ADP exchange in proteoliposomes reconstituted with the recombinant DNC. [α-35 S]dATP (1 mM) was added to proteoliposomes containing 10 mM ADP (⋄) or 10 mM NaCl (∇). (b) Dependence of DNC activity on internal substrate. Proteoliposomes were preloaded internally with various substrates (concentration 10 mM). Trans-port was started by addition of […] [α-35 S]dATP and stopped after 2 min. The values are means 6 SD of at least three experiments. (c) Inhibition of the rate of [α-35 S]dATP uptake by external substrates. Proteoliposomes were preloaded internally with 10 mM ADP. […] External substrates (concentration 0.5 mM) were added together with [α-35 S]dATP. The extents of inhibition (%) from a representative experiment are reported.
(§1) The recombinant protein in sarkosyl was reconstituted into liposomes in the presence of substrates (10). […] Transport was measured at 25° C. with internal and external pHs at 6.8. It was started by adding [α-35S]dATP or [^14C]-ADP and terminated after 2 min by addition of 100 mM of p-chloromercuribenzene sulfonate (10). Entrapped radioactivity was counted (10). The initial transport rate was calculated from the radioactivity taken up by proteoliposomes within 2 min (in the initial linear range). Other transport activities were assayed similarly (10).

[3] = molecular target: T1, human DNC (mitochondrial deoxynucleotide carrier); experiment: Inhibition of [α-35S]dATP uptake (dATP/ADP exchange) by external substrates and carrier inhibitors; conditions: external substrates 0.5 mM; internal 10 mM ADP; 125 mM [α-35 S]dATP; 2 min
Description: FIG. 3. Time course of dATP/ADP exchange and substrate specificity of human DNC. (a) Time course of [α-35 S]dATP/ADP exchange in proteoliposomes reconstituted with the recombinant DNC. [α-35 S]dATP (1 mM) was added to proteoliposomes containing 10 mM ADP (⋄) or 10 mM NaCl (∇). (b) Dependence of DNC activity on internal substrate. Proteoliposomes were preloaded internally with various substrates (concentration 10 mM). Trans-port was started by addition of […] [α-35 S]dATP and stopped after 2 min. The values are means 6 SD of at least three experiments. (c) Inhibition of the rate of [α-35 S]dATP uptake by external substrates. Proteoliposomes were preloaded internally with 10 mM ADP. Transport was started by adding […] [α-35 S]dATP and stopped after 2 min. External substrates (concentration 0.5 mM) were added together with [α-35 S]dATP. The extents of inhibition (%) from a representative experiment are reported.
The recombinant protein in sarkosyl was reconstituted into liposomes in the presence of substrates (10). Both cardiolipin (1.14 mg/ml) and EDTA (1 mM) were added. Transport was measured at 25° C. with internal and external pHs at 6.8. It was started by adding [α-35S]dATP or [^14C]-ADP and terminated after 2 min by addition of 100 mM of p-chloromercuribenzene sulfonate (10). Entrapped radioactivity was counted (10). The initial transport rate was calculated from the radioactivity taken up by proteoliposomes within 2 min (in the initial linear range). Other transport activities were assayed similarly (10).

[4] = molecular target: T1, human DNC (mitochondrial deoxynucleotide carrier); experiment: Homo-exchange of other carrier substrates in DNC proteoliposomes; conditions: internal concentration 10 mM; external concentration 1 mM
Description: as §1

[5] = inhibitor 2 mM, internal 10 mM ADP, 2 min
[6] = inhibitor 10 mM, internal 10 mM ADP, 2 min
[7] = inhibitor 0.1 mM, internal 10 mM ADP, 2 min

Row | Compound | rate of [α-35 S]dATP uptake into proteoliposomes with internal substrate [2] | effect of external substrate on [α-35 S]dATP/ADP exchange [3] | other results
1 | O=C(O)c1cccc(C(=O)O)c1C(=O)O [1,2,3-benzenetricarboxylate] |  |  | dATP/ADP exchange rate reduced to (remaining rate) [1, 5]: 40%
2 | Nc1ncnc2c1ncn2[C@@H]1O[C@H](COP(=O)(O)OP(=O)(O)OP(=O)(O)O)[C@@H](O)[C@H]1O [ATP] | lower rate |  | 
3 | Nc1ccn([C@@H]2O[C@H](COP(=O)(O)OP(=O)(O)O)[C@@H](O)[C@H]2O)c(=O)n1 [CDP] | significant activities |  | 
4 | Nc1nc2c(ncn2[C@@H]2O[C@H](COP(=O)(O)OP(=O)(O)O)[C@@H](O)[C@H]2O)c(=O)[nH]1 [GDP] | significant activities; also recorded: rather poorly |  | 
5 | CCN1C(=O)C=CC1=O [N-ethylmaleimide] |  |  | inhibition of uptake of [α-35 S]dATP [1, 5]: No significant inhibition
6 | NC(=O)C1=CN([C@@H]2O[C@H](COP(=O)(O)OP(=O)(O)OC[C@H]3O[C@@H](n4cnc5c(N)ncnc54)[C@H](O)[C@@H]3O)[C@@H](O)[C@H]2O)C=CC1 [NADH] | virtually no activity |  | 
7 | O=c1ccn([C@@H]2O[C@H](COP(=O)(O)OP(=O)(O)O)[C@@H](O)[C@H]2O)c(=O)[nH]1 [UDP] | significant activities |  | 
8 | N#CC(=Cc1ccc(O)cc1)C(=O)O [a-cyano-4-hydroxycinnamate] |  |  | inhibition of uptake of [α-35 S]dATP [1, 5]: No significant inhibition
9 | Nc1ncnc2nc[nH]c12 [adenine] | virtually no activity | no effect | 
10 | Nc1ncnc2c1ncn2[C@@H]1O[C@H](CO)[C@@H](O)[C@H]1O [adenosine] | virtually no activity | no effect | 
11 | c1ccc(-c2ccnc3c2ccc2c(-c4ccccc4)ccnc23)cc1 [bathophenathroline] |  |  | inhibition of uptake of [α-35 S]dATP [1, 6]: 41%
12 | CO[C@H](C/C=C\C=C\CC/C=C/C[C@H](C)/C=C/C(=C\C(=O)O)CC(=O)O)/C(C)=C\C=C(/C)C(=O)O [bongkrekate] |  |  | inhibition of uptake of [α-35 S]dATP ([1]; inhibitor 0.01 mM, internal 10 mM ADP, 2 min): 37%
13 | CCCCC(C(=O)O)C(=O)O [butylmalonate] |  |  | inhibition of uptake of [α-35 S]dATP [1, 5]: No significant inhibition
14 | C=C1[C@@H]2CC[C@H]3[C@]4(C)C[C@H](O[C@@H]5O[C@H](CO)[C@@H](OS(=O)(=O)O)[C@H](OS(=O)(=O)O)[C@H]5OC(=O)CC(C)C)CC(C(=O)O)(C(=O)O)[C@H]4CC[C@]3(C2)[C@H]1O [carboxyatractyloside] |  |  | inhibition of uptake of [α-35 S]dATP [1, 7]: 42%
15 | O=C(O)CC(O)(CC(=O)O)C(=O)O [citrate] | virtually no activity |  | 
16 | Nc1ccn([C@@H]2O[C@H](CO)[C@@H](O)[C@H]2O)c(=O)n1 [cytidine] | virtually no activity | no effect | 
17 | C=C1[C@@H](C)[C@H]2[C@H](Cc3ccccc3)NC(=O)[C@]23OC(=O)/C=C/[C@H](O)CCC[C@@H](C)C/C=C/[C@H]3[C@@H]1O [cytochalasin B] |  |  | inhibition of uptake of [α-35 S]dATP ([1]; inhibitor 0.033 mM, internal 10 mM ADP, 2 min): No significant inhibition
18 | Nc1cc[nH]c(=O)n1 [cytosine] | virtually no activity | no effect | 
19 | O=c1ccn([C@H]2C[C@H](O)[C@@H](COP(=O)(O)OP(=O)(O)O)O2)c(=O)[nH]1 [dUDP] |  |  | Ki, competitive inhibition of [α-35 S]dATP uptake by external substrate [1]: higher
20 | O=c1ccn([C@H]2C[C@H](O)[C@@H](COP(=O)(O)OP(=O)(O)OP(=O)(O)O)O2)c(=O)[nH]1 [dUTP] |  |  | Ki, competitive inhibition of [α-35 S]dATP uptake by external substrate [1]: higher

Row | Compound | rate of [α-35 S]dATP uptake into proteoliposomes with internal substrate [2] | effect of external substrate on [α-35 S]dATP/ADP exchange [3] | other results
21 | Nc1ncnc2c1ncn2[C@H]1CC[C@@H](COP(=O)(O)OP(=O)(O)OP(=O)(O)O)O1 [ddATP] |  |  | Ki [1]: 25 µM
22 | Nc1ccn([C@H]2CC[C@@H](COP(=O)(O)OP(=O)(O)OP(=O)(O)O)O2)c(=O)n1 [ddCTP] |  |  | Ki [1]: 70 µM
23 | Nc1ncnc2c1ncn2[C@H]1C[C@H](O)[C@@H](CO)O1 [deoxyadenosine] | virtually no activity | no effect | 
24 | Nc1ccn([C@H]2C[C@H](O)[C@@H](CO)O2)c(=O)n1 [deoxycytidine] | virtually no activity | no effect | 
25 | Nc1nc2c(ncn2[C@H]2C[C@H](O)[C@@H](CO)O2)c(=O)[nH]1 [deoxyguanosine] | virtually no activity | no effect | 
26 | Cc1cn([C@H]2C[C@H](O)[C@@H](CO)O2)c(=O)[nH]c1=O [deoxythymidine] | virtually no activity | no effect | 
27 | O=c1ccn([C@H]2C[C@H](O)[C@@H](CO)O2)c(=O)[nH]1 [deoxyuridine] | virtually no activity | no effect | 
28 | O=C(O)/C=C/C(=O)O [fumarate] |  |  | homo-exchange catalysed by reconstituted DNC [4]: did not catalyse
29 | NCC(=O)O [glycine] | virtually no activity |  | 
30 | Nc1nc2nc[nH]c2c(=O)[nH]1 [guanine] | virtually no activity | no effect | 
31 | Nc1nc2c(ncn2[C@@H]2O[C@H](CO)[C@@H](O)[C@H]2O)c(=O)[nH]1 [guanosine] | virtually no activity | no effect | 
32 | O=S(=O)([O-])c1cc[c]([Hg][Cl])cc1 [p-chloromercuribenzene sulfonate] |  |  | inhibition of uptake of [α-35 S]dATP [1, 7]: completely
33 | O=C(O)CC(C(=O)O)c1ccccc1 (stereo not shown) [phenylsuccinate] |  |  | inhibition of uptake of [α-35 S]dATP [1, 5]: No significant inhibition
34 | Cc1ncc(COP(=O)(O)O)c(C=O)c1O [pyridoxal 5′-phosphate] |  |  | inhibition of uptake of [α-35 S]dATP [1, 6]: completely
35 | O=P(O)(O)OP(=O)(O)O [pyrophosphate] | much lower activities |  | exchange relative to ADP exchange ([2]; [α-35 S]dATP uptake): 22%
36 | Cc1c[nH]c(=O)[nH]c1=O [thymine] | virtually no activity | no effect | 
37 | O=c1cc[nH]c(=O)[nH]1 [uracil] | virtually no activity | no effect | 
38 | O=c1ccn([C@@H]2O[C@H](CO)[C@@H](O)[C@H]2O)c(=O)[nH]1 [uridine] | virtually no activity | no effect | 
39 | dADP | highest rates |  | 
40 | phosphate | virtually no activity |  | 
